Laboratory results taken from patent US20250248979A1, “NOVEL GPX4 INHIBITORS AND USES THEREOF” (THE TRUSTEES OF COLUMBIA UNIVERSITY IN THE CITY OF NEW YORK, priority 2022, published 2025).

tested on: HT-1080 cells; experiment: Cellular dose response assay, HT-1080 with and without Fer-1; format: cell-based, human; conditions: ferroptosis selectivity, IC50 with Fer-1 / IC50
Source text: HT-1080 (human [Homo sapiens] […] fibrosarcoma), A-673 (human [Homo sapiens] […] Ewing's sarcoma), and SK-HEP-1 (human [Homo sapiens] […] hepatic adenocarcinoma), cells were obtained from ATCC. Huh7 (human [Homo sapiens] […] hepatocellular carcinoma), HLF (human [Homo sapiens] […] hepatocellular carcinoma), HepG2 (human [Homo sapiens] […] hepatocellular carcinoma), cells were obtained from the Cancer Cell Bank at Columbia University Irving Medical Center. HT-1080, A-673, Huh-7, and HLF cells were grown in Dulbecco's Modified Eagle Medium (DMEM) supplemented with 10% heat inactivated fetal bovine serum (HI-FBS), 1% non-essential amino acids, and 1% penicillin streptomycin. HepG2 and SK-HEP-1 cells were grown in Eagle's Minimum Essential Medium (EMEM) supplemented with 10% HI-FBS, and 1% penicillin-streptomycin. All cells were cultured at 37° C. and 5% CO2.
HT-1080, HepG2, Huh7, HLF, and SK-HEP-1 cells were seeded into opaque white 384-well plates at 1500 cells per well then incubated at 37° C. with 5% CO2 overnight. The next day, compounds of interest were dissolved in DMSO and 12-point 2-fold dilution series were prepared with and without Fer-1. Cells were treated in triplicate (final DMSO concentration of 0.4% in all wells, including DMSO-only control wells) and incubated for a further 48 hours at 37° C. and 5% CO2. Cell viability was evaluated using CellTiter-Glo (Promega G7573) and luminescence was recorded on a Victor 5 plate reader. Data were analyzed in GraphPad Prism 9 and error bars represent standard deviation values for three technical replicates in a representative experiment.

SMILES | Selectivity
COc1ccc(-c2ccc3c(C(=O)NC(C)(C)COC(=O)CCl)n(Cc4ccc(Cl)c(Cl)c4)nc3c2)cc1Cl [QW-972] | 1.5
CC(C)(COC(=O)CCl)NC(=O)c1c2ccc(-c3ccc(N4CCOCC4)c(Cl)c3)cc2nn1Cc1ccc(Cl)c(Cl)c1 [QW-973] | 1.4
COc1ccc(-c2ccc3c(c2)c(C(=O)NC(C)(C)COC(=O)CCl)nn3Cc2cc(Cl)cc(Cl)c2)cc1Cl [QW-979] | 1.8
CC(C)(COC(=O)CCl)NC(=O)c1nn(Cc2cc(Cl)cc(Cl)c2)c2ccc(-c3ccc(N4CCOCC4)c(Cl)c3)cc12 [QW-980] | 1.5
CCOc1ccc(-c2ccc3c(C(=O)NC(C)(C)COC(=O)CCl)nn(Cc4cc(Cl)cc(Cl)c4)c3c2)cc1Cl [QW-983] | 8.7
CSc1ccc(-c2ccc3c(C(=O)NC(C)(C)COC(=O)CCl)nn(Cc4cc(Cl)cc(Cl)c4)c3c2)cc1Cl [QW-984] | >53
CCCOc1ccc(-c2ccc3c(C(=O)NC(C)(C)COC(=O)CCl)nn(Cc4cc(Cl)cc(Cl)c4)c3c2)cc1Cl [QW-987] | >55
CC(C)(COC(=O)CCl)NC(=O)c1nn(Cc2cc(Cl)cc(Cl)c2)c2cc(-c3ccc(N4CCOCC4)cc3)ccc12 [QW-988] | 6.7

same assay, conditions: with Fer-1; Table 10; read-out: IC50 (μM) HT1080 + Fer-1

SMILES | IC50 [µM]
CC(C)(COC(=O)CCl)NC(=O)c1nn(Cc2ccc(Cl)c(Cl)c2)c2cc(-c3ccc(N4CCOCC4)c(Cl)c3)ccc12 [QW-968] | > 40
COc1ccc(-c2ccc3c(C(=O)NC(C)(C)COC(=O)CCl)n(Cc4ccc(Cl)c(Cl)c4)nc3c2)cc1Cl [QW-972] | 5.5
CC(C)(COC(=O)CCl)NC(=O)c1c2ccc(-c3ccc(N4CCOCC4)c(Cl)c3)cc2nn1Cc1ccc(Cl)c(Cl)c1 [QW-973] | 5.8
COc1ccc(-c2ccc3c(c2)c(C(=O)NC(C)(C)COC(=O)CCl)nn3Cc2cc(Cl)cc(Cl)c2)cc1Cl [QW-979] | 12.5
CC(C)(COC(=O)CCl)NC(=O)c1nn(Cc2cc(Cl)cc(Cl)c2)c2ccc(-c3ccc(N4CCOCC4)c(Cl)c3)cc12 [QW-980] | 8.4
CCOc1ccc(-c2ccc3c(C(=O)NC(C)(C)COC(=O)CCl)nn(Cc4cc(Cl)cc(Cl)c4)c3c2)cc1Cl [QW-983] | 19.2
CSc1ccc(-c2ccc3c(C(=O)NC(C)(C)COC(=O)CCl)nn(Cc4cc(Cl)cc(Cl)c4)c3c2)cc1Cl [QW-984] | > 40
CCCOc1ccc(-c2ccc3c(C(=O)NC(C)(C)COC(=O)CCl)nn(Cc4cc(Cl)cc(Cl)c4)c3c2)cc1Cl [QW-987] | > 40
CC(C)(COC(=O)CCl)NC(=O)c1nn(Cc2cc(Cl)cc(Cl)c2)c2cc(-c3ccc(N4CCOCC4)cc3)ccc12 [QW-988] | 19.5

same assay, conditions: without Fer-1; Table 10; read-out: IC50 (μM) HT1080

SMILES | IC50 [µM]
CC(C)(COC(=O)CCl)NC(=O)c1nn(Cc2ccc(Cl)c(Cl)c2)c2cc(-c3ccc(N4CCOCC4)c(Cl)c3)ccc12 [QW-968] | > 40
COc1ccc(-c2ccc3c(C(=O)NC(C)(C)COC(=O)CCl)n(Cc4ccc(Cl)c(Cl)c4)nc3c2)cc1Cl [QW-972] | 3.6
CC(C)(COC(=O)CCl)NC(=O)c1c2ccc(-c3ccc(N4CCOCC4)c(Cl)c3)cc2nn1Cc1ccc(Cl)c(Cl)c1 [QW-973] | 4.2
COc1ccc(-c2ccc3c(c2)c(C(=O)NC(C)(C)COC(=O)CCl)nn3Cc2cc(Cl)cc(Cl)c2)cc1Cl [QW-979] | 6.9
CC(C)(COC(=O)CCl)NC(=O)c1nn(Cc2cc(Cl)cc(Cl)c2)c2ccc(-c3ccc(N4CCOCC4)c(Cl)c3)cc12 [QW-980] | 5.5
CCOc1ccc(-c2ccc3c(C(=O)NC(C)(C)COC(=O)CCl)nn(Cc4cc(Cl)cc(Cl)c4)c3c2)cc1Cl [QW-983] | 2.2
CSc1ccc(-c2ccc3c(C(=O)NC(C)(C)COC(=O)CCl)nn(Cc4cc(Cl)cc(Cl)c4)c3c2)cc1Cl [QW-984] | 0.75
CCCOc1ccc(-c2ccc3c(C(=O)NC(C)(C)COC(=O)CCl)nn(Cc4cc(Cl)cc(Cl)c4)c3c2)cc1Cl [QW-987] | 0.72
CC(C)(COC(=O)CCl)NC(=O)c1nn(Cc2cc(Cl)cc(Cl)c2)c2cc(-c3ccc(N4CCOCC4)cc3)ccc12 [QW-988] | 2.9

target: T1, GPX4 (Homo sapiens, UniProt P36969); experiment: GPX4 activity assay in cell lysates (NADPH-coupled); format: biochemical; design: endogenous in cells; host or cells: A-673 cell lysate; conditions: 2.5 μM
T1 sequence (P36969 1-170 isoform P36969-2): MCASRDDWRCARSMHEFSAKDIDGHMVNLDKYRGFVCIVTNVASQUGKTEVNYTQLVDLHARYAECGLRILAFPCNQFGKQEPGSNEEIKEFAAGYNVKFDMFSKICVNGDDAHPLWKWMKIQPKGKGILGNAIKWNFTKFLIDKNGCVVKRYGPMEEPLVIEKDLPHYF
Summary of the method: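 Native GPX4 in lysates of A-673 cells grown with 20 nM sodium selenite; lysate preincubated with compound 45 min at 37 °C in pH 8.0 buffer with 3 mM GSH, 0.5 mM NADPH and glutathione reductase. Reaction started with phosphatidylcholine hydroperoxide; NADPH consumption followed at 340 nm over 25 min; triplicates.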

GPX4% inhibition at 2.5 μM [%] | SMILES | GPX4 inhibition [%]
36.3 ± 16.1 | CC(C)Oc1c(Cl)cc(-c2ccc3c(C(=O)NC(C)(C)C(C)(C)OC(=O)CCl)nn(C)c3c2)cc1Cl [QW-808] | –
75.3 ± 14.5 | COc1c(Cl)cc(-c2ccc3c(-n4cc(C(C)(C)COC(=O)CCl)nn4)nn(C)c3c2)cc1C(F)(F)F [QW-817] | –
71.4 ± 6.9 | CC(C)Oc1c(Cl)cc(-c2ccc3c(C(=O)NC(C)(C)COC(=O)CCl)nn(C)c3c2)cc1Cl [QW-820] | –
66.2 ± 5.4 | COc1ccc(-c2ccc3c(C(=O)NC(C)(C)COC(=O)CCl)nn(C)c3c2)c(Cl)c1Cl [QW-826] | –
68.7 ± 3.6 | COc1ccc(-c2ccc3c(-n4cc(C(C)(C)COC(=O)CCl)nn4)nn(C)c3c2)c(Cl)c1Cl [QW-829] | –
65.5 ± 5.9 | COc1cc(F)c(-c2ccc3c(C(=O)NC(C)(C)COC(=O)CCl)nn(C)c3c2)cc1Cl [QW-830] | –
– | COc1c(Cl)cc(-c2ccc3c(C(=O)NC(C)(C)COC(=O)CCl)nn(Cc4ccc(Cl)cc4)c3c2)cc1C(F)(F)F [QW-836] | 50

same assay, conditions: 2.5 μM; 4th generation

SMILES | GPX4% inhibition at 2.5 μM [%]
COc1c(Cl)cc(-c2ccc3c(C(=O)NC(C)(C)COC(=O)CCl)nn(Cc4ccc(Cl)cc4)c3c2)cc1C(F)(F)F [QW-836] | 45.7 ± 17.5
CCOc1ccc(-c2ccc3c(C(=O)NC(C)(C)COC(=O)CCl)nn(Cc4ccc(Cl)cc4)c3c2)cc1Cl [QW-840] | 80.1 ± 11.8
COc1c(Cl)cc(-c2ccc3c(C(=O)NC(C)(C)COC(=O)CCl)nn(Cc4ccc(Cl)cc4)c3c2)cc1Cl [QW-843] | 76.8 ± 11.4
CCCOc1ccc(-c2ccc3c(C(=O)NC(C)(C)COC(=O)CCl)nn(Cc4ccc(Cl)cc4)c3c2)cc1Cl [QW-846] | 91.5 ± 3.9
